Data taken from patent publication US20120225062A1 (priority 2011, published 2012).

Tests used:
Pim 1 = Pim 1 (Homo sapiens, UniProt P11309); experiment: Pim 1 AlphaScreen assay (high ATP)
Experimental: (§1) The activity of Pim 1, Pim 2, & Pim 3 is measured using a homogeneous bead based system quantifying the amount of phosphorylated peptide substrate resulting from kinase-catalyzed phosphoryl transfer to a peptide substrate. Compounds to be tested are dissolved in 100% DMSO and directly distributed to a white 384-well plate at 0.25 μl per well. […] This is followed by the addition of 5 μl/well of Pim 1, Pim 2 or Pim 3 kinase in assay buffer (concentrations described below). Final assay concentrations (described below) are in 2.5% DMSO. The reactions are performed for ˜2 hours, then stopped by the addition of 10 μl of 0.75 μg/ml anti-phospho Ser/Thr antibody (Cell Signaling), 10 μg/ml Protein A AlphaScreen beads (Perkin Elmer), and 10 μg/ml streptavidin coated AlphaScreen beads in stop/detection buffer (50 mM EDTA, 95 mM Tris, pH=7.5, 0.01% Tween-20). The stopped reactions are incubated overnight in the dark. The phosphorylated peptide is detected via an oxygen anion initiated chemiluminescence/fluorescence cascade using the Envision plate reader (Perkin Elmer).

[1] = test system: KMS11 (human myeloma cell line); experiment: Cell Proliferation Assay (CellTiter-Glo, 3 days); assay type: cell-based; details: KMS-11, 72 h, KMS11-luc cells
Method in brief: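 EC50 from CellTiter-Glo luminescence after 3-day, 37° C compound treatment of KMS11 cells seeded at 2000 per well in IMDM plus 10% FBS.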

Pim 2 = Pim 2 (Homo sapiens, UniProt Q9P1W9); experiment: Pim 2 AlphaScreen assay (high ATP)
Experimental: as §1

Pim 3 = Pim 3 (Homo sapiens, UniProt Q86V86); experiment: Pim 3 AlphaScreen assay (high ATP)

Chain of Pim 2 (Q9P1W9 whole entry): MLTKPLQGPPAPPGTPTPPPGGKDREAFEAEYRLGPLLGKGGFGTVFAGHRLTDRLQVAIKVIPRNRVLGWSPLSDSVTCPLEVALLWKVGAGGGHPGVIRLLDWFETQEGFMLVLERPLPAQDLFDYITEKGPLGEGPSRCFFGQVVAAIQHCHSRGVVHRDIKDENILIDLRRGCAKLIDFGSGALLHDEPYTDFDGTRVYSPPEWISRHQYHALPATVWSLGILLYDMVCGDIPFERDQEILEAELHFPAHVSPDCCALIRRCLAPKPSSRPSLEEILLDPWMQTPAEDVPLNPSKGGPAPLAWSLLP
Chain of Pim 1 (P11309 whole entry): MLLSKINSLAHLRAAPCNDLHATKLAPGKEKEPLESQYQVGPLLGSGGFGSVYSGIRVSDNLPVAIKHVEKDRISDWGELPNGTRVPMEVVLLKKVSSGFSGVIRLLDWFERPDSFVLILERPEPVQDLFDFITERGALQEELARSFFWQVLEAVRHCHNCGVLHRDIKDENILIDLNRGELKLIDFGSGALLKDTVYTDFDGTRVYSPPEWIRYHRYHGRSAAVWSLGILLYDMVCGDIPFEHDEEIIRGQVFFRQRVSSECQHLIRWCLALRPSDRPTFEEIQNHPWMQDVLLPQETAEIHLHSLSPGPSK

Row | IC50 (Pim 1) [nM] | EC50 [1] [nM] | IC50 (Pim 2) [nM] | IC50 (Pim 3) [nM] | Compound
1 | 0.01 | 96 | 1.23 | 0.13 | C[C@@H]1C[C@H](N)C[C@H](c2ccncc2NC(=O)c2ccc(F)c(-c3c(F)cc([C@H]4CCOC4)cc3F)n2)C1 [Example 207, N-(4-((1R,3S,5S)-3-amino-5-methylcyclohexyl)pyridin-3-yl)-6-(2,6-difluoro-4-((R)-tetrahydrofuran-3-yl)phenyl)-5-fluoropicolinamide]
2 | 0.01 | – | 0.58 | 0.2 | C[C@H]1CN(c2ccncc2NC(=O)c2ccc(F)c(-c3c(F)cc(OC4CCOCC4)cc3F)n2)C[C@@H](N)[C@@H]1O [Example 116, N-(4-((3R,4R,5S)-3-amino-4-hydroxy-5-methylpiperidin-1-yl)pyridin-3-yl)-6-(2,6-difluoro-4-(tetrahydro-2H-pyran-4-yloxy)phenyl)-5-fluoropicolinamide]
3 | 0.04 | 527 | 3 | 1.32 | C[C@H]1C[C@@H](c2ccncc2NC(=O)c2ccc(F)c(-c3c(F)cc(OCC4(C#N)CCOCC4)cc3F)n2)C[C@@H](N)[C@@H]1O [Example 186, N-(4-((1R,3R,4R,5S)-3-amino-4-hydroxy-5-methylcyclohexyl)pyridin-3-yl)-6-(4-((4-cyanotetrahydro-2H-pyran-4-yl)methoxy)-2,6-difluorophenyl)-5-fluoropicolinamide]
4 | 0.08 | 225 | 5.59 | 4.8 | C[C@H]1C[C@@H](c2ccncc2NC(=O)c2ccc(F)c(-c3c(F)cc(C4(F)COC4)cc3F)n2)C[C@@H](N)[C@@H]1O [Example 136, N-(4-((1R,3R,4R,5S)-3-amino-4-hydroxy-5-methylcyclohexyl)pyridin-3-yl)-6-(2,6-difluoro-4-(3-fluorooxetan-3-yl)phenyl)-5-fluoropicolinamide]
5 | 0.01 | – | 1.08 | 0.29 | COCCOc1cc(F)c(-c2nc(C(=O)Nc3cnccc3[C@@H]3C[C@H](C)C[C@H](N)C3)c(N)cc2F)c(F)c1 [Example 118, 3-amino-N-(4-((1R,3S,5S)-3-amino-5-methylcyclohexyl)pyridin-3-yl)-6-(2,6-difluoro-4-(2-methoxyethoxy)phenyl)-5-fluoropicolinamide]
6 | 0.01 | – | 0.65 | 0.16 | C[C@H]1CN(c2ccncc2NC(=O)c2ccc(F)c(-c3c(F)cc(OC4COC4)cc3F)n2)C[C@@H](N)[C@@H]1O [Example 117, N-(4-((3R,4R,5S)-3-amino-4-hydroxy-5-methylpiperidin-1-yl)pyridin-3-yl)-6-(2,6-difluoro-4-(oxetan-3-yloxy)phenyl)-5-fluoropicolinamide]
7 | 0.04 | – | 3.51 | 0.75 | CCOc1cc(F)c(-c2nc(C(=O)Nc3cnccc3[C@H]3C[C@@H](N)[C@H](O)[C@@H](C)C3)ccc2F)c(F)c1 [Example 226, N-(4-((1R,3R,4R,5S)-3-amino-4-hydroxy-5-methylcyclohexyl)pyridin-3-yl)-6-(4-ethoxy-2,6-difluorophenyl)-5-fluoropicolinamide]
8 | 0.02 | – | 1.78 | 0.51 | CCOc1cc(F)c(-c2nc(C(=O)Nc3cnccc3[C@@H]3C[C@H](C)C[C@H](N)C3)ccc2F)c(F)c1 [Example 225, N-(4-((1R,3S,5S)-3-amino-5-methylcyclohexyl)pyridin-3-yl)-6-(4-ethoxy-2,6-difluorophenyl)-5-fluoropicolinamide]
9 | 0.06 | – | 8.92 | 1.45 | CCOc1ccc(F)c(-c2nc(C(=O)Nc3cnccc3[C@@H]3C[C@H](C)C[C@H](N)C3)ccc2F)c1F [Example 213, N-(4-((1R,3S,5S)-3-amino-5-methylcyclohexyl)pyridin-3-yl)-6-(3-ethoxy-2,6-difluorophenyl)-5-fluoropicolinamide]
10 | 0.02 | 285 | 3.74 | – | C[C@@H]1C[C@H](N)C[C@H](c2ccncc2NC(=O)c2ccc(F)c(-c3c(F)cc(C4=CCCC4)cc3F)n2)C1 [Example 160]
11 | – | 158 | 0.93 | – | CC(C)[C@@H]1C[C@H](N)C[C@H](c2ccncc2NC(=O)c2ccc(F)c(-c3c(F)cc(OC4COC4)cc3F)n2)C1 [Example 183, N-(4-((1R,3S,5S)-3-amino-5-isopropylcyclohexyl)pyridin-3-yl)-6-(2,6-difluoro-4-(oxetan-3-yloxy)phenyl)-5-fluoropicolinamide]

Second part, the compound before the results:

Row | Compound | IC50 (Pim 1) [nM] | EC50 [1] [nM] | IC50 (Pim 2) [nM] | IC50 (Pim 3) [nM]
12 | C[C@@H]1C[C@H](N)C[C@H](c2ccncc2NC(=O)c2ccc(F)c(-c3c(F)cc(O[C@@H]4CCCOC4)cc3F)n2)C1 [Example 77, N-(4-((1R,3S,5S)-3-amino-5-methylcyclohexyl)pyridin-3-yl)-6-(2,6-difluoro-4-((R)-tetrahydro-2H-pyran-3-yloxy)phenyl)-5-fluoropicolinamide] | 0.02 | 48 | 1.84 | 1.12
13 | COCCOc1cc(F)c(-c2nc(C(=O)Nc3cnccc3[C@@H]3C[C@H](C)C[C@H](N)C3)ccc2F)c(F)c1 [Example 12, N-(4-((1R,3S,5S)-3-amino-5-methylcyclohexyl)pyridin-3-yl)-6-(2,6-difluoro-4-(2-methoxyethoxy)phenyl)-5-fluoropicolinamide] | 0.04 | 120 | 2.91 | 1.39
14 | COC(C)(C)COc1cc(F)c(-c2nc(C(=O)Nc3cnccc3[C@H]3C[C@@H](N)[C@H](O)[C@@H](C)C3)ccc2F)c(F)c1 [Example 45, N-(4-((1R,3R,4R,5S)-3-amino-4-hydroxy-5-methylcyclohexyl)pyridin-3-yl)-6-(2,6-difluoro-4-(2-methoxy-2-methylpropoxy)phenyl)-5-fluoropicolinamide] | 0.03 | 49 | 3.15 | 1.13
15 | CC(C)Oc1cc(F)c(-c2nc(C(=O)Nc3cnccc3[C@@H]3C[C@H](C)C[C@H](N)C3)ccc2F)c(F)c1 [Example 75, N-(4-((1R,3S,5S)-3-amino-5-methylcyclohexyl)pyridin-3-yl)-6-(2,6-difluoro-4-isopropoxyphenyl)-5-fluoropicolinamide] | 0.02 | 44 | 1.55 | 0.62
16 | C[C@H]1CN(c2ccncc2NC(=O)c2nc(-c3c(F)cc(OC4CCOCC4)cc3F)c(F)cc2N)C[C@@H](N)[C@@H]1O [Example 115, 3-amino-N-(4-((3R,4R,5S)-3-amino-4-hydroxy-5-methylpiperidin-1-yl)pyridin-3-yl)-6-(2,6-difluoro-4-(tetrahydro-2H-pyran-4-yloxy)phenyl)-5-fluoropicolinamide] | 0.01 | – | 0.66 | 0.12
17 | COC(C)(C)c1cc(F)c(-c2nc(C(=O)Nc3cnccc3[C@@H]3C[C@H](C)C[C@H](N)C3)c(N)cc2F)c(F)c1 [Example 113, 3-amino-N-(4-((1R,3S,5S)-3-amino-5-methylcyclohexyl)pyridin-3-yl)-6-(2,6-difluoro-4-(2-methoxypropan-2-yl)phenyl)-5-fluoropicolinamide] | 0.02 | – | 1.51 | 0.73
18 | CC(C)[C@@H]1C[C@H](N)C[C@H](c2ccncc2NC(=O)c2ccc(F)c(-c3c(F)cc(C4(O)COC4)cc3F)n2)C1 [Example 111, N-(4-((1R,3S,5S)-3-amino-5-isopropylcyclohexyl)pyridin-3-yl)-6-(2,6-difluoro-4-(3-hydroxyoxetan-3-yl)phenyl)-5-fluoropicolinamide] | 0.01 | – | 0.76 | 0.61
19 | COC(C)(C)c1cc(F)c(-c2nc(C(=O)Nc3cnccc3[C@H]3C[C@@H](N)[C@H](O)[C@@H](C)C3)c(N)cc2F)c(F)c1 [Example 114, 3-amino-N-(4-((1R,3R,4R,5S)-3-amino-4-hydroxy-5-methylcyclohexyl)pyridin-3-yl)-6-(2,6-difluoro-4-(2-methoxypropan-2-yl)phenyl)-5-fluoropicolinamide] | 0.04 | – | 1.37 | 1.29
20 | CC(C)[C@@H]1C[C@H](N)C[C@H](c2ccncc2NC(=O)c2ccc(F)c(-c3c(F)cc(OC4CCOCC4)cc3F)n2)C1 [Example 110, N-(4-((1R,3S,5S)-3-amino-5-isopropylcyclohexyl)pyridin-3-yl)-6-(2,6-difluoro-4-(tetrahydro-2H-pyran-4-yloxy)phenyl)-5-fluoropicolinamide] | 0.01 | – | 0.95 | 0.25
21 | C[C@@H]1C[C@H](N)C[C@H](c2ccncc2NC(=O)c2ccc(F)c(-c3c(F)cc(OC[C@H](O)CO)cc3F)n2)C1 [Example 2, N-(4-((1R,3S,5S)-3-amino-5-methylcyclohexyl)pyridin-3-yl)-6-(4-((R)-2,3-dihydroxypropoxy)-2,6-difluorophenyl)-5-fluoropicolinamide] | 0.01 | – | 2.99 | 0.57
22 | COC1(c2cc(F)c(-c3nc(C(=O)Nc4cnccc4N4C[C@@H](N)[C@H](O)[C@@H](C)C4)c(N)cc3F)c(F)c2)COC1 [Example 112, 3-amino-N-(4-((3R,4R,5S)-3-amino-4-hydroxy-5-methylpiperidin-1-yl)pyridin-3-yl)-6-(2,6-difluoro-4-(3-methoxyoxetan-3-yl)phenyl)-5-fluoropicolinamide] | 0.01 | – | 0.48 | 0.21
23 | C[C@@H]1C[C@H](N)C[C@H](c2ccncc2NC(=O)c2ccc(F)c(-c3c(F)cc(C4(O)COC4)cc3F)n2)C1 [Example 55, N-(4-((1R,3S,5S)-3-amino-5-methylcyclohexyl)pyridin-3-yl)-6-(2,6-difluoro-4-(3-hydroxyoxetan-3-yl)phenyl)-5-fluoropicolinamide] | 0.02 | 24 | 2.42 | –
